A short description of this series: Drug release assay (hydrolysis rate test in pH 7.4 / pH 2.0 buffer, HPLC). Format: physicochemical. To be noted: for Hydrolysis constant Kh pH 2.0 / Hydrolysis constant Kh pH 7.4: Kh=-ln[100%-Release rate (%)]/t; for Release rate (%) pH 2.0 (6 h): pH 2.0 buffer solution; for Release rate (%) pH 2.0 (6 h) / Release rate (%) pH 7.4 (0.5 h) / Release rate (%) pH 7.4 (6 h): 37° C., 200 rpm, residual content relative to 0 h by HPLC; for Release rate (%) pH 7.4 (0.5 h) / Release rate (%) pH 7.4 (6 h): pH 7.4 buffer solution. The method, then: Preparation of pH2.0 Buffer Solution
Preparation of pH7.4 Buffer Solution
Method of Hydrolysis Rate Test
The compounds were dissolved in pH7.4/pH2.0 buffer solution, placed in a constant temperature shaker at 37° C. and 200 rpm, and sampled at 0 h, 0.5 h and 6 h respectively. The residual contents of the compounds relative to 0 h were tested at each time point.
The release rates (%) were calculated using the following equation: Release rate (%)=[A(0h)−A(xh)]/A(0h)×100%, (x=0, 0.5, 6), A(xh) is the peak area of compounds tested by HPLC at the indicated time point.
The hydrolysis constants (Kh) were calculated using the following equation: Hydrolysis constant Kh=−ln[100%−Release rate (%)]/t Results

SMILES strings stand for the structures.

On to `CCc1c2c(nc3ccc(OC(=O)CN(C4CCCCC4)C4CCCCC4)cc13)-c1cc3c(c(=O)n1C2)COC(=O)[C@]3(O)CC` [Example 19, (S)-4,11-diethyl-4-hydroxy-3,14-dioxo-3,4,12,14-tetrahydro-1H-pyrano[3′,4′:6,7]indolizino[1,2-b]quinolin-9-yl dicyclohexylglycinate], for which the “Hydrolysis constant Kh pH 2.0” value was 0.041, the “Release rate (%) pH 2.0 (6 h)” value came to 21.8%, the “Hydrolysis constant Kh pH 7.4” value is reported as 0.865 and the “Release rate (%) pH 7.4 (0.5 h)” value was determined as 35.1%. For the same compound, the “Release rate (%) pH 7.4 (6 h)” value was 100%.
In the same order, the values of `CC[C@@]1(O)C(=O)OCc2c1cc1n(c2=O)Cc2cc3cc(OC(=O)OCC4CCCN4C(c4ccccc4)c4ccccc4)ccc3nc2-1` (stereo partly drawn) [Example 20, (1-Benzhydrylpyrrolidin-2-yl)methyl ((S)-4-ethyl-4-hydroxy-3,14-dioxo-3,4,12,14-tetrahydro-1H-pyrano[3′,4′:6,7]indolizino[1,2-b]quinolin-9-yl) carbonate] are 0.078, 37.2%, more than 20, 100% and 100%.
The matching figures for `Cn1nnc2c(C(=O)NC(=O)Oc3ccc(CC4CCN(C(c5ccccc5)c5ccccc5)CC4)cc3)ncn2c1=O` [Example 21, 4-((1-Benzhydrylpiperidin-4-yl)methyl)phenyl (3-methyl-4-oxo-3,4-dihydroimidazo[5,1-d][1,2,3,5]tetrazine-8-carbonyl)carbamate]: less than 0.001, 0%, 3.397, 81.7% and 100%.
The matching figures for `Cn1nnc2c(C(=O)NCc3ccc(CC4CCN(C(c5ccccc5)c5ccccc5)CC4)cc3)ncn2c1=O` [Example 22, N-(4-((1-benzhydrylpiperidin-4-yl)methyl)benzyl)-3-methyl-4-oxo-3,4-dihydroimidazo[5,1-d][1,2,3,5]tetrazine-8-carboxamide]: less than 0.001, 0%, 0.267, 12.5% and 85.4%.
As to `COc1cccc2c1C(=O)c1c(O)c3c(c(O)c1C2=O)C[C@@](O)(C(C)=O)C[C@@H]3O[C@H]1C[C@H](NC(=O)Oc2ccc(CN3CCN(C)CC3)cc2)[C@H](OC(C)=O)[C@H](C)O1` [Example 23, (2S,3S,4S,6R)-6-(((1S,3S)-3-acetyl-3,5,12-trihydroxy-10-methoxy-6,11-dioxo-1,2,3,4,6,11-hexahydrotetracen-1-yl)oxy)-2-methyl-4-(((4-((4-methylpiperazin-1-yl)methyl)phenoxy)carbonyl)amino)tetrahydro-2H-pyran-3-yl acetate], the “Hydrolysis constant Kh pH 2.0” value is 0.004, the “Release rate (%) pH 2.0 (6 h)” value worked out at 2.5%, the “Hydrolysis constant Kh pH 7.4” value came out at 0.149 and the “Release rate (%) pH 7.4 (0.5 h)” value amounted to 7.2%. Besides, the “Release rate (%) pH 7.4 (6 h)” value stood at 70.8%.
The matching figures for `CCCCCCOC(=O)OCn1cc(F)c(=O)[nH]c1=O` [Example 24, (5-Fluoro-2,4-dioxo-3,4-dihydropyrimidin-1(2H)-yl)methyl hexyl carbonate]: less than 0.001, 0%, 0.094, 4.6% and 55.7%.
The matching figures for `COc1ccc(OC(=O)OCn2cc(F)c(=O)[nH]c2=O)cc1` [Example 25, (5-Fluoro-2,4-dioxo-3,4-dihydropyrimidin-1(2H)-yl)methyl (4-methoxyphenyl) carbonate]: 0.151, 40.5%, 0.451, 20.2% and 61.3%.
